The values below come from patent US20230287416A1, “COMBINATORY TREATMENT OF SMA WITH SARNA AND MRNA MODULATORS” (RACTIGEN THERAPEUTICS, priority 2020, published 2023).

Common to all, as to assay type: cell-based, human
Data set [1] concerns SMN protein. Put plainly: Western blotting of SMN protein in GM00232 cells. The settings on record: GM00232, 72 h. Here is the method:
To further verify the effect of ASO-10-27 and DS06-0004 alone or in combination on SMN2 gene expression, western blotting assays were performed in GM00232 cells transfected individually or in combination with ASO-10-27 and DS06-0004. […] DS06-0004 at 1 nM, 5 nM and 25 nM increased SMN2FL by 1.2, 1.3 and 1.7 fold, respectively (FIGS. 5B and 5C).
(§1) SMA patient derived fibroblasts were obtained from Coriell Institute (Camden, N.J., USA), including GM00232 (SMA type I with 2 copies of SMN2 gene) and GM03813 (SMA type II with 3 copies of SMN2 gene). These cells were cultured at 5% C02 and 37° C. in modified MEM medium (Gibco, Thermo Fisher Scientific, Carlsbad, Calif.) supplemented with 15% bovine calf serum (Sigma-Aldrich), 1% NEAA (Gibco) and 1% penicillin/streptomycin (Gibco). To transfect oligonucleotides including saRNAs, siRNA and ASO, cells were seeded into 6-well plates at a density of 1×10^5 cells/well and were transfected with oligonucleotides at different concentrations using RNAiMax (Invitrogen, Carlsbad, Calif.) according to the reverse transfection protocol provided by the manufacturer for 72 hours (unless otherwise specified). For Risdiplam treatment of cells, Risdiplam (HY-109101, MedChem Express Company, Monmouth Junction, N.J., USA) dissolved in DMSO was added directly to cells at desired concentration for 72 hours unless specified otherwise.
(§2) Proteins were harvested from transfected cells using 1×RIPA Buffer including protease inhibitors and detected the protein concentration by BCA protein assay kits (Beyotime, P0010, China). To isolated proteins from animal tissues, tissues were harvested and lysed using 1×RIPA Buffer. Protein concentrations were measured by using BCA protein assay kits. Protein electrophoresis was performed (10 ug protein/well) with the use of a sodium dodecyl sulfate polyacrylamide gel electrophoresis (PAGE) gel, which was then transferred to a polyvinylidene difluoride (0.45 μm PVDF) membrane. The membranes were blotted with primary anti-SMN (CST, 19276, USA) or anti-α/β-Tubulin (CST, 2148s, USA) antibodies at 4° C. overnight. After three washes with TBST buffer, the membranes were incubated with anti-IgG, horseradish peroxidase-conjugated secondary antibodies (CST, 7074s and 7076s, USA) for 1 h at room temperature (RT). The membranes were then washed with TBST buffer three times for 10 min each and analyzed by Image Lab (BIO-RAD, Chemistry Doctm MP Imaging System). Band densities of SMN protein and α/β-Tubulin were quantified using ImageJ software.
A general note: Immunoblotting shows a protein as a band on a membrane.

For a further data set, the system named is SMN2 mRNA. Nature of the data set: RT-qPCR of SMN2FL and SMN2 Δ7 mRNA in GM03813 cells. The settings on record: for maximum increase of SMN2FL (ceiling effect): GM03813, 72 h (Example 1).
Description: “GM03813 cells” refers to fibroblast cells provided by Coriell Institute for Medical Research. This cell line is described as SPINAL MUSCULAR ATROPHY, TYPE II; SMA2 SURVIVAL OF MOTOR NEURON 1, TELOMERIC; SMN1. The relevant gene is SMN1; the chromosomal location is 5q12.2-q13.3, the allelic variant is described as 1 exons 7 and 8 deleted, SPINAL MUSCULAR ATROPHY, TYPE I; and the identified mutation: is EX7-8DEL.
Seventy-two hours later, total cellular RNA was isolated from the treated cells and reverse transcribed into cDNA. SMN2 mRNA expression was assessed with RT-qPCR using primer pairs specific for SMN2FL or SMN2 Δ7. SMN2 mRNA expression was also assessed by semi-quantitative RT-PCR using a primer pair that amplifies both SMN2FL and SMN2 Δ7 followed by DdeI digestion (PCR/digestion). […] After digestion, both bands were reduced by 115 bp, resulting in two products: 392 bp (SMN2FL) and 338 bp (SMN2 Δ7) as shown on the gel of FIG. 3D. FIG. 3A-3D show dose-dependent changes in SMN2FL and SMNΔ7 mRNA as assessed by RT-qPCR and PCR/digestion respectively. FIG. 3E-3G are graphic plots of data from quantitating the intensity of bands in FIG. 3D.
as §1
For RNA isolation from cultured cells, total cellular RNA was isolated from treated cells using an RNeasy Plus Mini kit (Qiagen, Hilden, Germany) according to its manual. To isolated RNA from animal tissues, tissues were harvested and stored at RNA later (AM7021, Thermo Fisher). Total RNA was then isolated using MagPure Total RNA Micro LQ kit (Magen, R6621, China) by auto-pure96 machine (ALLSHENG, China). The resultant RNA (1 μg) was reverse transcribed into cDNA by using a PrimeScript RT kit containing gDNA Eraser (Takara, Shlga, Japan). The resultant cDNA was amplified in an ABI 7500 Fast Real-time PCR System (Applied Biosystems; Foster City, Calif.) using SYBR Premix Ex Taq 11 (Takara, Shlga, Japan) reagents and primers which specifically amplified full-length (SMN2FL) or A7 SMN2 mRNA (SMN2 Δ7) (FIG. 1). The reaction conditions were: 95° C. for 3 seconds (1 cycle) and 60° C. for 30 seconds (40 cycles). Amplification of TBP gene served as an internal control.
Background: Real-time PCR tracks product formation cycle by cycle.

Data set [2] relates to SMN protein. Put plainly: Western blotting of SMN protein in GM03813 cells. The settings on record: GM03813, 72 h. Here is the method:
To further verify the effect of ASO-10-27 and DS06-0004 alone or in combination on SMN2 gene expression, western blotting assays were performed in GM03813 cells transfected individually or in combination with ASO-10-27 and DS06-0004. […] DS06-0004 at 1 nM, 5 nM and 25 nM increased SMN2FL by 1.5-, 1.5- and 1.6-fold, respectively (FIGS. 7B and 7C).
as §1, §2

The mark [3] stands for this setting: GM03813, 72 h, 100 nM (Example 1).
The mark [4] stands for this setting: GM03813, 72 h, 1 nM (Example 4, FIG. 6A).
[5] abbreviates: GM03813, 72 h, 1 nM (Example 8).
Where [6] appears, read: GM03813, 72 h, 1 nM to 50 nM (Example 1, FIG. 3B).
Where [7] appears, read: GM03813, 72 h, 5 nM (Example 4).
[8] abbreviates: GM03813, 72 h, 5 nM (Example 8).
[9] abbreviates: GM03813, 72 h, 25 nM (Example 4).
Setting [10] is: GM03813, 72 h, 25 nM (Example 8).
Where [11] appears, read: GM03813, 72 h, alone or in combination at 10 nM, RT-qPCR (Example 10, FIG. 12A).

Consider `Cc1cn2nc(-c3cc(=O)n4cc(N5CCNC6(CC6)C5)ccc4n3)cc(C)c2n1` [Risdiplam], for which the “SMN protein fold change” value is listed as 1.7 fold in the data set with SMN protein [1] (50 nM (Example 7, FIG. 9)); 1.9 fold in the data set on SMN protein [1] (250 nM (Example 7)); 2.6 fold with SMN protein [1] (1250 nM (Example 7)); 1.1 fold in the data set with SMN protein [2] (50 nM (Example 9, FIG. 11)); 1.7 fold in the data set with SMN protein [2] (250 nM (Example 9)). In addition, the “maximum increase of SMN2FL (ceiling effect)” value with SMN2 mRNA is reported as roughly 2 fold. In addition, the “SMN2FL mRNA fold change” value in the data set with SMN2 mRNA (GM03813, 72 h, 50 nM (Example 8, FIG. 10A-10C)) worked out at 1.0 fold; with SMN2 mRNA (GM03813, 72 h, 100 nM (Example 1, FIG. 3C)) it was 1.2 fold; in the data set with SMN2 mRNA (GM03813, 72 h, 250 nM (Example 8)), 1.4 fold; in the data set on SMN2 mRNA (GM03813, 72 h, 1000 nM (Example 1, FIG. 3C)), 1.8 fold; with SMN2 mRNA (GM03813, 72 h, 1250 nM (Example 8)) it was 2.1 fold. Also, the “SMN2 Δ7 mRNA change” value in the data set with SMN2 mRNA (GM03813, 72 h, 50 nM, 250 nM and 1250 nM (Example 8)) is recorded as “decrease”. In addition, the “decrease of SMN2 Δ7 mRNA” value with SMN2 mRNA (setting [3]) worked out at 36%; with SMN2 mRNA (GM03813, 72 h, 1000 nM (Example 1)), 98%.

With “DS06-0004: saRNA targeting SMN2 promoter at -281; SEQ ID NO: 476/477 (Table 8: SEQ ID NO: 131/288) (chain 1 AGACGAGGCCUAAGCAACATT; chain 2 UGUUGCUUAGGCCUCGUCUTT; chemistry not given here)”, the “SMN protein fold change” value is given as 1.2 fold in the data set on SMN protein [1] (1 nM (Example 3, FIG. 5)); 1.3 fold with SMN protein [1] (5 nM (Example 3)); 1.7 fold with SMN protein [1] (25 nM (Example 3)); 1.5 fold in the data set with SMN protein [2] (1 nM (Example 5, FIG. 7)); 1.5 fold with SMN protein [2] (5 nM (Example 5)); 1.6 fold with SMN protein [2] (25 nM (Example 5)). The “SMN2 Δ7 mRNA fold change” value stood at 2.5 fold with SMN2 mRNA (GM03813, 72 h, 1 nM (Example 4)); 1.8 fold with SMN2 mRNA (setting [5]); 2.5 fold in the data set with SMN2 mRNA (setting [7]); 2.3 fold in the data set with SMN2 mRNA (setting [8]); 2.1 fold in the data set with SMN2 mRNA (setting [9]); 2.3 fold in the data set on SMN2 mRNA (setting [10]). Moreover, the “SMN2FL mRNA fold change” value is 2.1 fold in the data set on SMN2 mRNA (setting [4]); 1.7 fold with SMN2 mRNA (setting [5]); 2.6 fold in the data set on SMN2 mRNA (setting [7]); 2.2 fold in the data set with SMN2 mRNA (setting [8]); 2.2 fold in the data set with SMN2 mRNA (setting [9]); 2.3 fold with SMN2 mRNA (setting [10]). For the same compound, in the data set with SMN2 mRNA (setting [6]), the “highest fold change of SMN2FL mRNA” value worked out at 2.9 fold. In addition, in the data set with SMN2 mRNA (setting [6]), the “highest fold change of SMN2 Δ7 mRNA” value stood at 2.7 fold. Moreover, in the data set on SMN2 mRNA (setting [3]), the “SMN2 mRNA expression” value is listed as “did not further increase”.

As to Nusinersen [ASO-10-27], the “SMN protein fold change” value worked out at 1.4 fold in the data set on SMN protein [1] (1 nM (Example 3, FIG. 5)); 2.3 fold with SMN protein [1] (5 nM (Example 3)); 2.9 fold with SMN protein [1] (25 nM (Example 3)); 1.2 fold in the data set with SMN protein [2] (1 nM (Example 5, FIG. 7)); 1.5 fold in the data set on SMN protein [2] (5 nM (Example 5)); 1.9 fold in the data set with SMN protein [2] (25 nM (Example 5)). Also, the “SMN protein fold change” value with SMN protein [2] (alone or in combination at 10 nM (Example 10, FIG. 12D-12E)) is 2.3 fold. In addition, in the data set with SMN2 mRNA, the “maximum increase of SMN2FL (ceiling effect)” value is reported as roughly 2 fold. For the same compound, the “SMN2FL mRNA fold change” value in the data set with SMN2 mRNA (GM03813, 72 h, 1 nM (Example 1, FIG. 3A)) is on record as 1.5 fold; in the data set with SMN2 mRNA (setting [4]), 1.2 fold; in the data set with SMN2 mRNA (setting [7]), 2.1 fold; in the data set on SMN2 mRNA (GM03813, 72 h, 5 nM, peak increase (Example 1, FIG. 3A)), 2.0 fold; in the data set on SMN2 mRNA (setting [9]), 2.1 fold; with SMN2 mRNA (setting [11]), 1.4 fold. Moreover, the “SMN2 Δ7 mRNA change” value with SMN2 mRNA (GM03813, 72 h, 1 nM, 5 nM and 25 nM (Example 4)) is recorded as “decrease”; in the data set on SMN2 mRNA (GM03813, 72 h, 5 nM (Example 1)) it was “decrease”. The “SMN2 Δ7 mRNA fold change” value in the data set on SMN2 mRNA (setting [11]) is given as 0.3 fold.
